Reference: patent publication US12643859B2, “Pyridyl oxycarboxylic acid oxime derivative and preparation method therefor, weeding composition and application thereof” (Qingdao Kingagroot Chemical Compound Co., Ltd., priority 2018, dated 2026)

What was measured:
Type in all cases: in vivo
Indica rice = assay: Post-emergence test experiment, crop selectivity; settings: post-emergence spray, 600 g a.i./ha plus water 450 kg/ha, 3 weeks in greenhouse
Protocol: (§1) The above described growth inhibition rate is fresh weight inhibition rate.
(§2) Post-emergence test experiment: Monocotyledonous and dicotyledonous weed seeds and main crop seeds (i. e. wheat, corn, rice, soybean, cotton, oilseed, millet and sorghum.) were put into a plastic pot loaded with soil. Then covered with 0.5-2 cm soil, the seeds were allowed to grow in good greenhouse environment. The test plants were treated at 2-3 leaf stage 2 weeks after sowing. The test compounds of the invention were dissolved with acetone respectively, then added with tween-80, and using 1.5 liters per hectare of an emulsible concentrate of methyl oleate as a synergist, and diluted by certain amount of water to certain concentration. The solution was sprayed to the plants with a sprayer. Then the plants were cultured for 3 weeks in the greenhouse, and the experiment result of weed controlling effect was listed in tables 3-4.

Japonica rice = assay: Post-emergence test experiment, crop selectivity; settings: post-emergence spray, 600 g a.i./ha plus water 450 kg/ha, 3 weeks in greenhouse
Protocol: as §1, §2

Sagittaria trifolia = assay: Weed control effect evaluation in rice field; settings: 1000 g a.i./ha, paddy water application at primary leaf stage, 14 days after treatment; weeds resistant to pyrazosulfuron-ethyl and penoxsulam
Description: as §1
(§3) Transplanted rice safety evaluation and weed control effect evaluation in rice field: Rice field soil was loaded into a 1/1,000,000 ha pot. The seeds of Scirpus juncoides, Sagittaria trifolia and Monochoria vaginalis were sowed and gently covered with soil, then left to stand still in greenhouse in the state of 0.5-1 cm of water storage. The tuber of Sagittaria trifolia was planted in the next day or 2 days later. It was kept at 3-4 cm of water storage thereafter. The weeds were treated by dripping the WP or SC water diluents prepared according to the common preparation method of the compounds of the present invention with pipette homogeneously to achieve specified effective amount when Scirpus juncoides, and Monochoria vaginalis reached 0.5 leaf stage and Sagittaria trifolia reached the time point of primary leaf stage.
(§4) The fertility condition of Scirpus juncoides, Sagittaria trifolia and Monochoria vaginalis 14 days after the treatment of the compound of the invention and the fertility condition of rice 21 days after the treatment of the compound of the invention respectively with the naked eye. Evaluate the weed control effect with 0-5 activity standard level. Many compounds show excellent activity and selectivity.

Scirpus juncoides = assay: Weed control effect evaluation in rice field; settings: 1000 g a.i./ha, paddy water application at 0.5 leaf stage, 14 days after treatment; weeds resistant to pyrazosulfuron-ethyl and penoxsulam
Description: as §1, §3, §4

Monochoria Vaginalis = assay: Weed control effect evaluation in rice field; settings: 1000 g a.i./ha, paddy water application at 0.5 leaf stage, 14 days after treatment; weeds resistant to pyrazosulfuron-ethyl and penoxsulam
Description: as §1, §3, §4

Rice = assay: Transplanted rice safety evaluation; settings: 1000 g a.i./ha, transplanted 3 leaf stage japonica rice, treated 5 days after transplantation, 21 days after treatment
Protocol: as §1
In addition, the rice field soil that loaded into the 1/1,000,000 ha pot was leveled to keep water storage at 3-4 cm depth. The 3 leaf stage rice (japonica rice) was transplanted at 3 cm of transplanting depth the next day. The compound of the present invention was treated by the same way after 5 days of transplantation.
as §4, with “level.” for “level. Many compounds show excellent activity and selectivity.”

[1] = system: Monocotyledonous and dicotyledonous weed seeds and main crop seeds; assay: Post-emergence test experiment (Table 3, 1000 g a.i./ha); settings: 3 weeks in greenhouse, fresh weight inhibition
Outline: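 Weeds and crops (wheat, corn, rice, soybean, cotton, oilseed, millet, sorghum) grown in soil in the greenhouse and sprayed post-emergence at 2–3 leaf stage, 2 weeks after sowing. Compound in acetone with tween-80 plus methyl oleate emulsible concentrate (1.5 L/ha) as synergist, diluted in water. Fresh weight inhibition scored after 3 weeks.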

Cyperus iria = assay: Post-emergence test experiment, weed control; settings: post-emergence spray, 600 g a.i./ha plus water 450 kg/ha, 3 weeks in greenhouse
Protocol: as §1, §2

CC(=NOC(=O)C(C)Oc1nc(F)c(Cl)c(N)c1Cl)c1ccc(Cl)cc1 (stereo not drawn) [Compound 70]
Activity level (fresh weight growth inhibition rate), Indica rice (Indica rice): 0 (Level 0: the growth inhibition rate is less than 5%) | Activity level (fresh weight growth inhibition rate), Japonica rice (Japonica rice): 0 (Level 0: the growth inhibition rate is less than 5%) | Weed control effect, 0-5 activity standard level, Sagittaria trifolia (Sagittaria trifolia): 4 (Level 4: the growth inhibition rate is equal to or greater than 60% and less than 85%) | Weed control effect, 0-5 activity standard level, Scirpus juncoides (Scirpus juncoides): 4 (Level 4: the growth inhibition rate is equal to or greater than 60% and less than 85%) | Weed control effect, 0-5 activity standard level, Monochoria Vaginalis (Monochoria Vaginalis): 5 (Level 5: the growth inhibition rate is greater than 85%) | Safety, 0-5 activity standard level, Rice (Rice): 0 (Level 0: the growth inhibition rate is less than 5%) | Activity level (growth inhibition rate) Digitaria sanguinalis [1]: 5 (Level 5: the growth inhibition rate is greater than 85%) | Activity level (growth inhibition rate) Echinochloa crusgalli [1]: 5 (Level 5: the growth inhibition rate is greater than 85%) | Activity level (growth inhibition rate) Galium spurium [1]: 5 (Level 5: the growth inhibition rate is greater than 85%) | Activity level (growth inhibition rate) Leptochloa chinensis [1]: 5 (Level 5: the growth inhibition rate is greater than 85%) | Activity level (growth inhibition rate) Monochoria Vaginalis [1]: 5 (Level 5: the growth inhibition rate is greater than 85%) | Activity level (growth inhibition rate) Murdannia triquetra [1]: 5 (Level 5: the growth inhibition rate is greater than 85%) | Activity level (growth inhibition rate) Setaria viridis [1]: 5 (Level 5: the growth inhibition rate is greater than 85%) | Activity level (fresh weight growth inhibition rate), Cyperus iria (Cyperus iria): 5 (Level 5: the growth inhibition rate is greater than 85%)

COc1ccccc1C(F)=NOC(=O)C(C)Oc1nc(F)c(Cl)c(N)c1Cl (stereo not drawn) [Compound 84]
Activity level (fresh weight growth inhibition rate), Indica rice (Indica rice): 0 (Level 0: the growth inhibition rate is less than 5%) | Activity level (fresh weight growth inhibition rate), Japonica rice (Japonica rice): 0 (Level 0: the growth inhibition rate is less than 5%) | Weed control effect, 0-5 activity standard level, Sagittaria trifolia (Sagittaria trifolia): 4 (Level 4: the growth inhibition rate is equal to or greater than 60% and less than 85%) | Weed control effect, 0-5 activity standard level, Scirpus juncoides (Scirpus juncoides): 4 (Level 4: the growth inhibition rate is equal to or greater than 60% and less than 85%) | Weed control effect, 0-5 activity standard level, Monochoria Vaginalis (Monochoria Vaginalis): 5 (Level 5: the growth inhibition rate is greater than 85%) | Safety, 0-5 activity standard level, Rice (Rice): 0 (Level 0: the growth inhibition rate is less than 5%) | Activity level (growth inhibition rate) Digitaria sanguinalis [1]: 5 (Level 5: the growth inhibition rate is greater than 85%) | Activity level (growth inhibition rate) Echinochloa crusgalli [1]: 5 (Level 5: the growth inhibition rate is greater than 85%) | Activity level (growth inhibition rate) Galium spurium [1]: 5 (Level 5: the growth inhibition rate is greater than 85%) | Activity level (growth inhibition rate) Leptochloa chinensis [1]: 5 (Level 5: the growth inhibition rate is greater than 85%) | Activity level (growth inhibition rate) Monochoria Vaginalis [1]: 5 (Level 5: the growth inhibition rate is greater than 85%) | Activity level (growth inhibition rate) Murdannia triquetra [1]: 5 (Level 5: the growth inhibition rate is greater than 85%) | Activity level (growth inhibition rate) Setaria viridis [1]: 5 (Level 5: the growth inhibition rate is greater than 85%) | Activity level (fresh weight growth inhibition rate), Cyperus iria (Cyperus iria): 5 (Level 5: the growth inhibition rate is greater than 85%)

CCOC(=NOC(=O)C(C)Oc1nc(F)c(Cl)c(N)c1Cl)c1ccc(NC(C)=O)cc1 (stereo not drawn) [Compound 88]
Activity level (fresh weight growth inhibition rate), Indica rice (Indica rice): 0 (Level 0: the growth inhibition rate is less than 5%) | Activity level (fresh weight growth inhibition rate), Japonica rice (Japonica rice): 0 (Level 0: the growth inhibition rate is less than 5%) | Weed control effect, 0-5 activity standard level, Sagittaria trifolia (Sagittaria trifolia): 4 (Level 4: the growth inhibition rate is equal to or greater than 60% and less than 85%) | Weed control effect, 0-5 activity standard level, Scirpus juncoides (Scirpus juncoides): 4 (Level 4: the growth inhibition rate is equal to or greater than 60% and less than 85%) | Weed control effect, 0-5 activity standard level, Monochoria Vaginalis (Monochoria Vaginalis): 5 (Level 5: the growth inhibition rate is greater than 85%) | Safety, 0-5 activity standard level, Rice (Rice): 0 (Level 0: the growth inhibition rate is less than 5%) | Activity level (growth inhibition rate) Digitaria sanguinalis [1]: 5 (Level 5: the growth inhibition rate is greater than 85%) | Activity level (growth inhibition rate) Echinochloa crusgalli [1]: 5 (Level 5: the growth inhibition rate is greater than 85%) | Activity level (growth inhibition rate) Galium spurium [1]: 5 (Level 5: the growth inhibition rate is greater than 85%) | Activity level (growth inhibition rate) Leptochloa chinensis [1]: 5 (Level 5: the growth inhibition rate is greater than 85%) | Activity level (growth inhibition rate) Monochoria Vaginalis [1]: 5 (Level 5: the growth inhibition rate is greater than 85%) | Activity level (growth inhibition rate) Murdannia triquetra [1]: 5 (Level 5: the growth inhibition rate is greater than 85%) | Activity level (growth inhibition rate) Setaria viridis [1]: 5 (Level 5: the growth inhibition rate is greater than 85%) | Activity level (fresh weight growth inhibition rate), Cyperus iria (Cyperus iria): 5 (Level 5: the growth inhibition rate is greater than 85%)
